Reference: PMC11801377, “A uniquely efficacious type of CFTR corrector with complementary mode of action” (Science Advances, 2024)

Tests used:
[1] = system: 10 most frequent CF-causing CFTR folding mutations; experiment: CFTR correction (immunoblotting) in HEK-TREx cells expressing CF-causing CFTR folding mutations; assay type: cell-based, human; settings: many mutants
Description: (§1) The human CFTR expressing HEK cell pools with the mutations described below were generated by integrase-mediated homologous recombination of the CFTR sequence into the T-REx HEK293 background (Thermo Fisher Scientific). This expression system allows the tetracycline-inducible expression of genes of interest from one defined insertion site. Parental T-REx-HEK293 cells were cultivated in growth medium: Dulbecco’s modified Eagle’s medium + GlutaMAX-I (#31966, Life Technologies), 10% dialyzed FBS (Gibco, #26400), penicillin (100 U/ml), streptomycin (100 μg/ml), hygromycin B (0.1 mg/ml; Life Technologies), blasticidin (5 μg/ml; Invitrogen, #R210-01), and 0.1 mM nonessential amino acid solution (Invitrogen, #11140-035). Recombinant T-REx-HEK-CFTR cells were generated by lipofectamine transfection (Life Technologies) of plasmids containing mutated versions of CFTR (RefSeq NM_000492) and then cultivated in selection medium [growth medium containing Geneticin (1 mg/ml) (Invitrogen, #10131-027) instead of hygromycin]. The plasmid constructs were synthetized by GENEART (Thermo Fisher Scientific) and designed with the WT CFTR intron 5 to 6 (880 nucleotides) to prevent leaky expression issues during the cloning process in bacteria. […]

G551D-CFTR = target: T1, G551D-CFTR (Homo sapiens, UniProt P13569, G551D); experiment: YFP quenching copotentiation assay in HEK-G551D-CFTR cells (acute treatment); assay type: cell-based; settings: HEK293 cells, 10 min incubation
T1 construct: expressed in transfected cells; host or cells: T-REx HEK293, also transduced with halide-sensitive YFP
T1 sequence (P13569 whole entry G551D): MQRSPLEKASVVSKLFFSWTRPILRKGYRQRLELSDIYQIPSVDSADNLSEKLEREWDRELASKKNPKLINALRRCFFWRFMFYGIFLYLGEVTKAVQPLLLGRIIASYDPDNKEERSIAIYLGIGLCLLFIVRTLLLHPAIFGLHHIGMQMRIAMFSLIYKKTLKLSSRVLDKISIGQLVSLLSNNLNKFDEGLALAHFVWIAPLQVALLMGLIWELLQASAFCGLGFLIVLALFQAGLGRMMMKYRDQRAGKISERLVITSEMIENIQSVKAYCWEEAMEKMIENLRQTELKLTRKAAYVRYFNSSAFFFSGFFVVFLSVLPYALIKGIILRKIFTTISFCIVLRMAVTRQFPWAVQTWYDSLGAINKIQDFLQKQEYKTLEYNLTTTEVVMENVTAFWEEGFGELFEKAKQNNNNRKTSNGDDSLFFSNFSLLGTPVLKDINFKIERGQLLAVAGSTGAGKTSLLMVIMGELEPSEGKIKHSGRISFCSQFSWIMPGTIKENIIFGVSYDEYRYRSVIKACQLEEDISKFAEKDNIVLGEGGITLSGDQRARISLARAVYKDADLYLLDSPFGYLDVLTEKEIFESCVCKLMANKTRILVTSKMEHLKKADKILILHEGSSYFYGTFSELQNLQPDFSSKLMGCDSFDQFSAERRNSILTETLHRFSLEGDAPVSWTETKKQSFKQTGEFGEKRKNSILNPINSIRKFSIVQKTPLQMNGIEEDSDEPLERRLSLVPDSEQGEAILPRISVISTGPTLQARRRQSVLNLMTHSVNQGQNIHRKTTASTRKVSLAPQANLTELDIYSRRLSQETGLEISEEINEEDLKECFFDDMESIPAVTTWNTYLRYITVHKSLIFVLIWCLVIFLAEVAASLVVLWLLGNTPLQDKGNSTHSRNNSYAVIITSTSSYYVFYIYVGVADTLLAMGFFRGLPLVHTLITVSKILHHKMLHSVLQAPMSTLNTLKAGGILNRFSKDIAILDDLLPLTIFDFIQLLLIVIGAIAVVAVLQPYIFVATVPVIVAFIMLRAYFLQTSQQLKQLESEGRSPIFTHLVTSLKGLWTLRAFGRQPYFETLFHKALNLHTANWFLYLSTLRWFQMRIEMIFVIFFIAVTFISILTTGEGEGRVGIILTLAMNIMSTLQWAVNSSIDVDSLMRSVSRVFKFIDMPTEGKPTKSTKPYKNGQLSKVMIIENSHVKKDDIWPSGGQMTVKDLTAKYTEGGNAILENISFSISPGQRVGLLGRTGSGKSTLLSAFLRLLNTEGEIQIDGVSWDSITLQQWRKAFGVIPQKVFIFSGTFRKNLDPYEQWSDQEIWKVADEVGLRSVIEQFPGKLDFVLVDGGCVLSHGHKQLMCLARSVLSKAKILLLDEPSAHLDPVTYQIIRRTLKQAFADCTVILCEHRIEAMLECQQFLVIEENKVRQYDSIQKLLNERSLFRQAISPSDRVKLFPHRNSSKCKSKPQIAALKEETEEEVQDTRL
Description: as §1

| acute effect on IVA activity at G551D-CFTR (G551D-CFTR) | Structure (SMILES) | correction by stand-alone treatment [1] |
| --- | --- | --- |
| copotentiation of IVA activity | Cc1nn(C)cc1S(=O)(=O)NC(=O)c1ccc(-n2ccc(OCC(C)(C)C(F)(F)F)n2)nc1N1C[C@@H](C)CC1(C)C [ELX, elexacaftor] | no/little correction |
| copotentiation of IVA activity | COc1cc(CCNC(=O)C2CC(=O)N(C)C(CC(C)C)C(=O)N3CCCCC3C(=O)NC(Cc3ccccc3)COc3ccc4ncc(F)cc4c3C(=O)N2)on1 (stereo not shown) [IDOR-3] |  |
|  | CC(C)(CO)c1cc2cc(NC(=O)C3(c4ccc5c(c4)OC(F)(F)O5)CC3)c(F)cc2n1C[C@@H](O)CO [TEZ, tezacaftor] | no/little correction |
